Patent publication US20160244437A1, “SUBSTITUTED PHENYLALANINE DERIVATIVES” (BAYER PHARMA AKTIENGESELLSCHAFT, priority 2013, published 2016)
pIC50: −log10 of the molar value. Counter-ions that a name gives are not always drawn.

Biological target: T1, human factor XIa (Homo sapiens, UniProt P03951)
T1 construct: purchased Kordia
Assay: Measurement of FXIa inhibition (fluorogenic peptide substrate Boc-Glu(OBzl)-Ala-Arg-AMC)
Format: biochemical
Settings: factor XIa from Kordia 0.45 nM, 15 min pre-incubation, 30 min at 22° C., fluorescence
Method: The factor XIa inhibition of the substances according to the invention is determined using a biochemical test system which utilizes the reaction of a peptidic factor XIa substrate to determine the enzymatic activity of human factor XIa. Here, factor XIa cleaves from the peptic factor XIa substrate the C-terminal aminomethylcoumarin (AMC), the fluorescence of which is measured. The determinations are carried out in microtitre plates.
Test substances are dissolved in dimethyl sulphoxide and serially diluted in dimethyl sulphoxide (3000 μM to 0.0078 μM; resulting final concentrations in the test: 50 μM to 0.00013 μM). In each case 1 μl of the diluted substance solutions is placed into the wells of white microtitre plates from Greiner (384 wells). Subsequently, the following are added successively: 20 μl of assay buffer (50 mmol/l Tris buffer pH 7.4; 100 mmol/l sodium chloride; 5 mmol/l calcium chloride; 0.1% bovine serum albumin) and 20 μl of factor XIa from Kordia (0.45 nM in assay buffer). After 15 min of incubation, the enzyme reaction is started by addition of 20 μl of the factor XIa substrate Boc-Glu(OBzl)-Ala-Arg-AMC dissolved in assay buffer (10 μM in assay buffer) from Bachem, the mixture is incubated at room temperature (22° C.) for 30 min and fluorescence is then measured (excitation: 360 nm, emission: 460 nm). The measured emissions of the test batches with test substance are compared to those of control batches without test substance (only dimethyl sulphoxide instead of test substance in dimethyl sulphoxide), and IC50 values are calculated from the concentration/activity relationships.

T1 sequence (P03951 388-625 limits assumed): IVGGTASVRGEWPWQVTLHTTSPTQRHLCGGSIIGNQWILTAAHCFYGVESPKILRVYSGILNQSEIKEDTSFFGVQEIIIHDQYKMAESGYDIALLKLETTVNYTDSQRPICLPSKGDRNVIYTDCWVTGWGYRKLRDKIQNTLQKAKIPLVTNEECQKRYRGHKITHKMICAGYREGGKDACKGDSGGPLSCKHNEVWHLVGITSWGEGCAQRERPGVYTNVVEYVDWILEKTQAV
T1 sequence (P03951 19-387 partner limits assumed): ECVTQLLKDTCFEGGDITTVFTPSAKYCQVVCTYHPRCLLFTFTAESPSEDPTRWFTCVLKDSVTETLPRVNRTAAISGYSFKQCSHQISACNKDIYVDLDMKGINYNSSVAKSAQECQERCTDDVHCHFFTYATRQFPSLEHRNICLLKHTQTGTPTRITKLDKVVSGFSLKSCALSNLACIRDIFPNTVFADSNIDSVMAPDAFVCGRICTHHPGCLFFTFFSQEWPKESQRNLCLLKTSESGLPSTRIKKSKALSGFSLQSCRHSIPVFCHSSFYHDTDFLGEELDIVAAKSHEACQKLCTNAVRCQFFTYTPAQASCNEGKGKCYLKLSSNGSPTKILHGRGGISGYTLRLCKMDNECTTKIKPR

| pIC50 | Compound |
| --- | --- |
| 7.92 | CN1CCN(c2cc(-c3cccc(C[C@H](NC(=O)[C@H]4CC[C@H](CN)CC4)C(=O)Nc4ccc(-c5nnn[nH]5)cc4)c3)ccn2)CC1 [Example 65, N-alpha-{[trans-4-(Aminomethyl)cyclohexyl]carbonyl}-3-[2-(4-methylpiperazin-1-yl)pyridin-4-yl]-N-[4-(1H-tetrazol-5-yl)phenyl]-L-phenylalaninamide hydrochloride] |
| 8.31 | CN1CCN(c2ncc(-c3cccc(C[C@H](NC(=O)[C@H]4CC[C@H](CN)CC4)C(=O)Nc4ccc(-c5nnn[nH]5)cc4)c3)cn2)CC1 [Example 69, N-alpha-{[trans-4-(Aminomethyl)cyclohexyl]carbonyl}-3-[2-(4-methylpiperazin-1-yl)pyrimidin-5-yl]-N-[4-(1H-tetrazol-5-yl)phenyl]-L-phenylalaninamide hydrochloride] |
| 8.11 | Cc1cc(C(=O)NC2CCNCC2)ccc1-c1cccc(C[C@H](NC(=O)[C@H]2CC[C@H](CN)CC2)C(=O)Nc2ccc(-c3nnn[nH]3)cc2)c1 [Example 15, 3′-[(2S)-2-({[trans-4-(Aminomethyl)cyclohexyl]carbonyl}amino)-3-oxo-3-{[4-(1H-tetrazol-5-yl)phenyl]amino}propyl]-2-methyl-N-(piperidin-4-yl)biphenyl-4-carboxamide hydrochloride] |
| 8.00 | Cc1ccc(C[C@H](NC(=O)C2CCC(CN)CC2)C(=O)Nc2ccc(-c3nnn[nH]3)cc2)cc1-c1cccc(C(=O)NC2C3CNCC32)c1 (stereo partly drawn) [Example 35, 5′-[(2S)-2-({[trans-4-(Aminomethyl)cyclohexyl]carbonyl}amino)-3-oxo-3-{[4-(1H-tetrazol-5-yl)phenyl]amino}propyl]-N-(3-azabicyclo[3.1.0]hex-6-yl)-2′-methylbiphenyl-3-carboxamide hydrochloride] |
| 8.51 | CN(C)c1ccc(-c2cccc(C[C@H](NC(=O)[C@H]3CC[C@H](CN)CC3)C(=O)Nc3ccc(-c4nnn[nH]4)cc3)c2)cn1 [Example 71, N-alpha-{[trans-4-(Aminomethyl)cyclohexyl]carbonyl}-3-[6-(dimethylamino)pyridin-3-yl]-N-[4-(1H-tetrazol-5-yl)phenyl]-L-phenylalaninamide hydrochloride] |
| 8.51 | NC[C@H]1CC[C@H](C(=O)N[C@@H](Cc2cccc(-c3ccccc3C(F)(F)F)c2)C(=O)Nc2ccc(-c3nnn[nH]3)cc2)CC1 [Example 84, trans-4-(Aminomethyl)-N-{(25)-1-oxo-1-{[4-(1H-tetrazol-5-yl)phenyl]amino}-3-[2′-(trifluoromethyl)biphenyl-3-yl]propan-2-yl}cyclohexanecarboxamide hydrochloride] |
| 8.62 | NC[C@H]1CC[C@H](C(=O)N[C@@H](Cc2cccc(-c3ccnc(N4CCOCC4)c3)c2)C(=O)Nc2ccc(-c3nn[nH]n3)cc2)CC1 [Example 85, N-alpha-{[trans-4-(Aminomethyl)cyclohexyl]carbonyl}-3-[2-(morpholin-4-yl)pyridin-4-yl]-N-[4-(2H-tetrazol-5-yl)phenyl]-L-phenylalaninamide hydrochloride] |
| 9.05 | Cc1ccc(S(=O)(=O)N2CCOCC2)cc1-c1cccc(C[C@H](NC(=O)[C@H]2CC[C@H](CN)CC2)C(=O)Nc2ccc(-c3nnn[nH]3)cc2)c1 [Example 3, trans-4-(Aminomethyl)-N-[(2S)-3-[2′-methyl-5′-(morpholin-4-ylsulphonyl)biphenyl-3-yl]-1-oxo-1-{[4-(1H-tetrazol-5-yl)phenyl]amino}propan-2-yl]cyclohexanecarboxamide hydrochloride] |
| 8.68 | NC[C@H]1CC[C@H](C(=O)N[C@@H](Cc2cccc(-c3cnc(N4CCOCC4)nc3)c2)C(=O)Nc2ccc(-c3nnn[nH]3)cc2)CC1 [Example 74, N-alpha-{[trans-4-(Aminomethyl)cyclohexyl]carbonyl}-3-[2-(morpholin-4-yl)pyrimidin-5-yl]-N-[4-(1H-tetrazol-5-yl)phenyl]-L-phenylalaninamide hydrochloride] |
| 8.14 | CN1CCN(c2ccc(-c3cccc(C[C@H](NC(=O)[C@H]4CC[C@H](CN)CC4)C(=O)Nc4ccc(-c5nnn[nH]5)cc4)c3)cn2)CC1 [Example 77, N-alpha-{[trans-4-(Aminomethyl)cyclohexyl]carbonyl}-3-[6-(4-methylpiperazin-1-yl)pyridin-3-yl]-N-[4-(1H-tetrazol-5-yl)phenyl]-L-phenylalaninamide hydrochloride] |
| 8.35 | NC[C@H]1CC[C@H](C(=O)N[C@@H](Cc2cccc(-c3ccc(C(=O)N4CCOCC4)cc3)c2)C(=O)Nc2ccc(-c3nnc(Cl)[nH]3)cc2)CC1 [Example 26, trans-4-(Aminomethyl)-N-{(2S)-1-{[4-(3-chloro-4H-1,2,4-triazol-5-yl)phenyl]amino}-3-[4′-(morpholin-4-ylcarbonyl)biphenyl-3-yl]-1-oxopropan-2-yl}cyclohexanecarboxamide hydrochloride] |

More lines, now with the values behind:

| Compound | pIC50 |
| --- | --- |
| NCCNC(=O)c1ccc(-c2cccc(C[C@H](NC(=O)[C@H]3CC[C@H](CN)CC3)C(=O)Nc3ccc4cn[nH]c4c3)c2)cc1 [Example 50, N-(2-Aminoethyl)-3′-[(2S)-2-({[trans-4-(aminomethyl)cyclohexyl]carbonyl}amino)-3-(1H-indazol-6-ylamino)-3-oxopropyl]biphenyl-4-carboxamide hydrochloride] | 7.26 |
| Cc1cc(C(=O)N[C@@H]2CCCNC2=O)ccc1-c1cccc(C[C@H](NC(=O)[C@H]2CC[C@H](CN)CC2)C(=O)Nc2ccc3nc(C(F)(F)C(F)(F)F)[nH]c3c2)c1 [Example 63, 3′-[(2S)-2-({[trans-4-(Aminomethyl)cyclohexyl]carbonyl}amino)-3-oxo-3-{[2-(pentafluoroethyl)-1H-benzimidazol-6-yl]amino}propyl]-2-methyl-N-[(3R)-2-oxopiperidin-3-yl]biphenyl-4-carboxamide hydrochloride] | 7.28 |
| Cc1cc(C(=O)NCCOCCOCCO)ccc1-c1cccc(C[C@H](NC(=O)[C@H]2CC[C@H](CN)CC2)C(=O)Nc2ccc(-c3nnn[nH]3)cc2)c1 [Example 25, 3′-[(2S)-2-({[trans-4-(Aminomethyl)cyclohexyl]carbonyl}amino)-3-oxo-3-{[4-(1H-tetrazol-5-yl)phenyl]amino}propyl]-N-{2-[2-(2-hydroxyethoxy)ethoxy]ethyl}-2-methylbiphenyl-4-carboxamide hydrochloride] | 8.36 |
| CN1CCN(c2cc(-c3cccc(C[C@H](NC(=O)[C@H]4CC[C@H](CN)CC4)C(=O)Nc4ccc5[nH]c(=O)[nH]c5c4)c3)ccn2)CC1 [Example 76, N-alpha-{[trans-4-(Aminomethyl)cyclohexyl]carbonyl}-3-[2-(4-methylpiperazin-1-yl)pyridin-4-yl]-N-(2-oxo-2,3-dihydro-1H-benzimidazol-5-yl)-L-phenylalaninamide hydrochloride] | 7.23 |
| NC[C@H]1CC[C@H](C(=O)N[C@@H](Cc2cccc(-c3cnc(N4CCOCC4)nc3)c2)C(=O)Nc2ccc(-c3n[nH]c(=O)[nH]3)cc2)CC1 [Example 88, N-alpha-{[trans-4-(Aminomethyl)cyclohexyl]carbonyl}-3-[2-(morpholin-4-yl)pyrimidin-5-yl]-N-[4-(5-oxo-4,5-dihydro-1H-1,2,4-triazol-3-yl)phenyl]-L-phenylalaninamide hydrochloride] | 7.54 |
| CCN(CC)CCNC(=O)c1ccc(-c2cccc(C[C@H](NC(=O)[C@H]3CC[C@H](CN)CC3)C(=O)Nc3ccc4cn[nH]c4c3)c2)cc1 [Example 53, 3′-[(2S)-2-({[trans-4-(Aminomethyl)cyclohexyl]carbonyl}amino)-3-(1H-indazol-6-ylamino)-3-oxopropyl]-N-[2-(diethylamino)ethyl]biphenyl-4-carboxamide hydrochloride] | 7.77 |
| Cc1ccc(C[C@H](NC(=O)[C@H]2CC[C@H](CN)CC2)C(=O)Nc2ccc(-c3nnn[nH]3)cc2)cc1-c1cccc(C(=O)NCCOCCOCCO)c1 [Example 28, 5′-[(2S)-2-({[trans-4-(Aminomethyl)cyclohexyl]carbonyl}amino)-3-oxo-3-{[4-(1H-tetrazol-5-yl)phenyl]amino}propyl]-N-{2-[2-(2-hydroxyethoxy)ethoxy]ethyl}-2′-methylbiphenyl-3-carboxamide hydrochloride] | 8.28 |
| Cc1cnccc1-c1cccc(C[C@H](NC(=O)[C@H]2CC[C@H](CN)CC2)C(=O)Nc2ccc3[nH]c(=O)[nH]c3c2)c1 [Example 75, N-alpha-{[trans-4-(Aminomethyl)cyclohexyl]carbonyl}-3-(3-methylpyridin-4-yl)-N-(2-oxo-2,3-dihydro-1H-benzimidazol-5-yl)-L-phenylalaninamide hydrochloride] | 7.46 |
| NC[C@H]1CC[C@H](C(=O)N[C@@H](Cc2cccc(-c3cnc(O)nc3)c2)C(=O)Nc2ccc(-c3nnn[nH]3)cc2)CC1 [Example 99, N-alpha-{[trans-4-(Aminomethyl)cyclohexyl]carbonyl}-3-(2-hydroxypyrimidin-5-yl)-N-[4-(1H-tetrazol-5-yl)phenyl]-L-phenylalaninamide hydrochloride] | 8.05 |
